Source: paper PMC3433420 (PLoS ONE, 2012)
Residues, ends and D or L forms follow the SMILES beside them.

Columns and labels:
[1] = target: T1, PLCG1-NC tandem SH2 domains (Homo sapiens, UniProt P19174); experiment: FP saturation binding assay; details: high-confidence ErbB interactions
T1 construct: the tandem protein was included in our analysis with all internal amino acids linking the domains; 6X His; thioredoxin; made in house; host or cells: E. coli BL21(DE3)pLysS
T1 sequence (P19174 550-756 limits assumed): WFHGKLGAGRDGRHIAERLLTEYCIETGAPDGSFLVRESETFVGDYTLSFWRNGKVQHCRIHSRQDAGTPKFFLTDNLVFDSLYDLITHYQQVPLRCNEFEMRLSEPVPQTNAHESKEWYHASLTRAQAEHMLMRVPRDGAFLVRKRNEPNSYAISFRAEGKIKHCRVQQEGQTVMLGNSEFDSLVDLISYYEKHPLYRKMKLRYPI

[2] = target: PIK3R2-NC tandem SH2 domains (Homo sapiens, UniProt O00459); experiment: FP saturation binding assay
[3] = target: T2, PTPN11-NC tandem SH2 domains (Homo sapiens, UniProt Q06124); experiment: FP saturation binding assay
T2 sequence (Q06124 6-216 limits assumed): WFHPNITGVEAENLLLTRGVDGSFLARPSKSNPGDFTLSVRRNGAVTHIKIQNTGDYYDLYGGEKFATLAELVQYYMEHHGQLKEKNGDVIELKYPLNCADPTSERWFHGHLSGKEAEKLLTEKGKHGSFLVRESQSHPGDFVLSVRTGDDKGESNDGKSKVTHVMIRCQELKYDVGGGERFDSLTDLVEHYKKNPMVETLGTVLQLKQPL

[4] = target: T3, RASA1-N SH2 domain (Homo sapiens, UniProt P20936); experiment: FP saturation binding assay
T3 sequence (P20936 181-272 limits assumed): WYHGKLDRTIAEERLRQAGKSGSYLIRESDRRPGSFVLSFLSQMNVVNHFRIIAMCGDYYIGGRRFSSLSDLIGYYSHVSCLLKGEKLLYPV

[5] = target: T4, PLCG1-C SH2 domain (Homo sapiens, UniProt P19174); experiment: biochemical; format: binding; details: high-confidence ErbB interactions
T4 construct: The 6X His-tagged SH2 domain proteins used in the assay, PLCG1-C, SHC4, VAV2; thioredoxin; made in house; host or cells: E. coli BL21(DE3)pLysS
T4 sequence (P19174 668-756 limits assumed): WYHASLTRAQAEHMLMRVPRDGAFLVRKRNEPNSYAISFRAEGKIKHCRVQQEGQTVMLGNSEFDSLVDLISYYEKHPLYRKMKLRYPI

[6] = Protein PLCG1-NC, FP saturation binding, mean over replicate hits
[7] = protein PLCG1-NC, FP, mean of replicate hits

Chain of PIK3R2-NC tandem SH2 domains (O00459 330-716 limits assumed): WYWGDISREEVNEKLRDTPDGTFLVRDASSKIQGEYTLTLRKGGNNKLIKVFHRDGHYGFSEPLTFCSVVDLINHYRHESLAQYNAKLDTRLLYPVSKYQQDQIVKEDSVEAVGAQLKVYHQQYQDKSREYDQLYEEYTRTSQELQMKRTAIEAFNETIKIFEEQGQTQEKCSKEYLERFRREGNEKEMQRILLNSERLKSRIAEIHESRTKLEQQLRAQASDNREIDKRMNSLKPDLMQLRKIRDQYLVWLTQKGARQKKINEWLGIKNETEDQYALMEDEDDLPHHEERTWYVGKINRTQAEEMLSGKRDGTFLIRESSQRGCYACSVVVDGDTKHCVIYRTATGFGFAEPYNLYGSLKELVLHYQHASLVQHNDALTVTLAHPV

Compound	Kd [1, 6]	Kd [2]	Kd [3]	Kd [4]	Kd ([5]; Protein PLCG1-C, FP saturation binding, mean over replicate hits)	Kd [1, 7]	Kd ([5]; protein PLCG1-C, FP, mean of replicate hits)	Kd ([5]; protein PLCG1-C, mean of replicate hits)	Kd ([1]; protein PLCG1-NC, mean of replicate hits)
CC(C)C[C@H](NC(=O)[C@H](Cc1ccc(OP(=O)(O)O)cc1)NC(=O)[C@H](CCC(=O)O)NC(=O)[C@H](CCC(=O)O)NC(=O)[C@H](C)NC(=O)[C@@H](N)CC(=O)O)C(=O)N[C@H](C(=O)N1CCC[C@H]1C(=O)N[C@@H](CCC(N)=O)C(=O)N[C@@H](CCC(N)=O)C(=O)NCC(=O)N[C@@H](Cc1ccccc1)C(=O)N[C@@H](CC(=O)O)C(=O)O)C(C)C [ErbB2 1023 13-mer] (HELM PEPTIDE1{D.A.E.E.[O=C([C@H](Cc1ccc(OP(=O)(O)O)cc1)N[*:1])[*:2]].L.V.P.Q.Q.G.F.D}$$$$V2.0)	1.3 µM	6.09 µM	10.6 µM	5.49 µM	–	–	–	–	–
CC(C)[C@H](NC(=O)[C@H](CC(=O)O)NC(=O)[C@@H]1CCCN1C(=O)[C@H](CCC(N)=O)NC(=O)[C@H](CC(N)=O)NC(=O)[C@@H](NC(=O)[C@H](Cc1ccc(OP(=O)(O)O)cc1)NC(=O)[C@H](CCC(=O)O)NC(=O)[C@@H]1CCCN1C(=O)[C@H](CCC(N)=O)NC(=O)[C@@H]1CCCN1)C(C)C)C(=O)N[C@@H](CCCNC(=N)N)C(=O)N[C@@H](CC(=O)O)C(=O)O [ErbB2 1139 13-mer] (HELM PEPTIDE1{P.Q.P.E.[O=C([C@H](Cc1ccc(OP(=O)(O)O)cc1)N[*:1])[*:2]].V.N.Q.P.D.V.R.D}$$$$V2.0)	3.38 µM	5.81 µM	8.71 µM	–	–	–	–	–	–
CC(C)C[C@H](NC(=O)[C@H](CC(N)=O)NC(=O)[C@@H](N)CC(=O)O)C(=O)N[C@@H](Cc1ccc(O)cc1)C(=O)N[C@@H](Cc1ccc(OP(=O)(O)O)cc1)C(=O)N[C@@H](Cc1c[nH]c2ccccc12)C(=O)N[C@@H](CC(=O)O)C(=O)N[C@@H](CCC(N)=O)C(=O)N[C@@H](CC(=O)O)C(=O)N1CCC[C@H]1C(=O)N1CCC[C@H]1C(=O)N[C@@H](CCC(=O)O)C(=O)N[C@@H](CC(=O)O)C(=O)O [ErbB2 1222 13-mer] (HELM PEPTIDE1{D.N.L.Y.[O=C([C@H](Cc1ccc(OP(=O)(O)O)cc1)N[*:1])[*:2]].W.D.Q.D.P.P.E.D}$$$$V2.0)	1.28 µM	7.81 µM	9.45 µM	4.29 µM	0.78 µM	–	–	–	–
CSCC[C@H](NC(=O)[C@H](Cc1ccc(OP(=O)(O)O)cc1)NC(=O)[C@H](CCC(=O)O)NC(=O)[C@H](Cc1ccc(O)cc1)NC(=O)CNC(=O)[C@@H](N)CC(C)C)C(=O)N[C@@H](CC(=O)O)C(=O)N[C@H](C(=O)NCC(=O)N[C@@H](CO)C(=O)N[C@@H](CC(=O)O)C(=O)N[C@@H](CC(C)C)C(=O)N[C@@H](CC(=O)O)C(=O)O)C(C)C [ErbB3 1224 13-mer] (HELM PEPTIDE1{L.G.Y.E.[O=C([C@H](Cc1ccc(OP(=O)(O)O)cc1)N[*:1])[*:2]].M.D.V.G.S.D.L.D}$$$$V2.0)	–	3.31 µM	–	1.24 µM	–	4.22 µM	–	–	–
CSCC[C@H](NC(=O)[C@H](CCC(=O)O)NC(=O)[C@H](CCC(=O)O)NC(=O)[C@H](Cc1ccc(OP(=O)(O)O)cc1)NC(=O)CNC(=O)[C@H](CCC(N)=O)NC(=O)[C@H](CCC(=O)O)NC(=O)[C@@H](N)CO)C(=O)N[C@@H](CCCNC(=N)N)C(=O)N[C@@H](C)C(=O)N[C@@H](Cc1ccccc1)C(=O)N[C@@H](CCC(N)=O)C(=O)N[C@@H](CC(=O)O)C(=O)O [ErbB3 1289 13-mer] (HELM PEPTIDE1{S.E.Q.G.[O=C([C@H](Cc1ccc(OP(=O)(O)O)cc1)N[*:1])[*:2]].E.E.M.R.A.F.Q.D}$$$$V2.0)	–	–	–	8.83 µM	–	6.14 µM	–	–	–
CSCC[C@H](NC(=O)[C@H](Cc1ccc(OP(=O)(O)O)cc1)NC(=O)CNC(=O)[C@H](CCC(=O)O)NC(=O)[C@H](CCC(=O)O)NC(=O)[C@H](CC(=O)O)NC(=O)[C@H](CC(C)C)NC(=O)[C@H](CCC(=O)O)NC(=O)CNC(=O)[C@H](CCCNC(=N)N)NC(=O)[C@@H]1CCCN1)C(=O)N[C@H](C(=O)N1CCC[C@H]1C(=O)N[C@@H](CCSC)C(=O)N[C@@H](CCCNC(=N)N)C(=O)N[C@@H](CC(=O)O)C(=O)N[C@@H](CCCCN)C(=O)N[C@@H](CC(=O)O)C(=O)O)[C@@H](C)O [ErbB4 1150 18-mer] (HELM PEPTIDE1{P.R.G.E.L.D.E.E.G.[O=C([C@H](Cc1ccc(OP(=O)(O)O)cc1)N[*:1])[*:2]].M.T.P.M.R.D.K.D}$$$$V2.0)	–	–	–	0.61 µM	–	2.82 µM	3.1 µM	–	–
CC(C)C[C@H](NC(=O)[C@H](Cc1ccc(OP(=O)(O)O)cc1)NC(=O)[C@H](CC(C)C)NC(=O)[C@@H]1CCCN1C(=O)[C@H](CCC(=O)O)NC(=O)[C@H](CC(N)=O)NC(=O)[C@@H](NC(=O)[C@H](Cc1ccc(O)cc1)NC(=O)[C@H](CCC(=O)O)NC(=O)[C@H](CC(=O)O)NC(=O)[C@@H](N)CCC(=O)O)C(C)C)C(=O)N[C@@H](CC(N)=O)C(=O)N[C@H](C(=O)N[C@@H](Cc1ccccc1)C(=O)N[C@@H](C)C(=O)N[C@@H](CC(N)=O)C(=O)N[C@H](C(=O)N[C@@H](CC(=O)O)C(=O)O)[C@@H](C)O)[C@@H](C)O [ErbB4 1208 18-mer] (HELM PEPTIDE1{E.D.E.Y.V.N.E.P.L.[O=C([C@H](Cc1ccc(OP(=O)(O)O)cc1)N[*:1])[*:2]].L.N.T.F.A.N.T.D}$$$$V2.0)	–	–	–	6.4 µM	–	–	–	2.07 µM	0.97 µM
